Measured values as given in article PMC7413516, “Antidepressant-like activity and safety profile evaluation of 1H-imidazo[2,1-f]purine-2,4(3H,8H)-dione derivatives as 5-HT1A receptor partial agonists” (PLoS ONE, 2020).
“Also recorded” adds a separate entry of the source.

Assays:
[1] = target: serotonergic 5-HT7 receptor (5-HT7R); parameters: method as in PMID 27353547; details: ref [8]; cited from earlier work
mice = assay: Spontaneous activity monitoring (RFID TraffiCage, 18 h); type: in vivo, Swiss albino mice; details: for Mean counts, spontaneous activity: 0.625 mg/kg
Procedure: (§1) The Swiss albino mice were used in the experiment. AZ-853 and AZ-861 were injected once daily for 16 consecutive days. On the 1st and 15th day the administration of the compounds, 18-h spontaneous animal activity was registered (see below). FST, as described earlier, was performed on the 14th day just before the next treatment. To ensure that the effects observed in FST are not the result of increased motility of animals, on the 13th day, just before the next administration, the locomotor activity was measured as described earlier, from 2 to 6 min after test start, i.e. in the period identical to the duration of FST. Blood and organ collection was performed on the 17th day at 24 h after the last dose and fasting.
The spontaneous activity of the mice was measured on the 1st and 15th day of the treatment with a special, innovative radiofrequency identification system (RFID-system)—TraffiCage (TSE-Systems, Germany). The test was conducted according to the method described in the literature. The animals had the transmitter (RFID) subcutaneously implanted, which tracked the time they spent in different areas of the cage. The data obtained were then grouped in a special computer program.

[2] = target: T1, human serotonin 5-HT1A receptor (Homo sapiens, UniProt P08908); assay: ERK1/2 phosphorylation (SureFire Alpha LISA, CHO-K1 5HT1AR cells)
T1 sequence (P08908 1-422): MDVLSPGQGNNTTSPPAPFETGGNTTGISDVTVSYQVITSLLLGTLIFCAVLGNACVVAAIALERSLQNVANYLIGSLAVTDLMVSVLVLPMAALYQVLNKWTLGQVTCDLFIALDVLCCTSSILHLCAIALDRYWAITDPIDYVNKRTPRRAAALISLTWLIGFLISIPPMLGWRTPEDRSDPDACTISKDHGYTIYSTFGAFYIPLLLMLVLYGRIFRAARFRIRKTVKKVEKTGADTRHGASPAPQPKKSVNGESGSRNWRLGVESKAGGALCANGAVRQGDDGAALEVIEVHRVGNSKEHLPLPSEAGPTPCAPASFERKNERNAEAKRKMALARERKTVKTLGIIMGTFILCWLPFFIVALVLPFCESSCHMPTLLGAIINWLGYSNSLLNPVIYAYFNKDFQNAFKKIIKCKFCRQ
Procedure: CHO-K1 cell line transfected with 5-HT1A receptor, were commercially obtained from Perkin Elmer (Cat. No. ES-310-C, Lot Number M2W-C1). Cells were cultured according to manufacturer’s instruction. […] Geneticin-resistant clones were obtained by limit dilution and compared for receptor expression levels using a radioligand binding assay. The clone with the highest receptor expression level was selected for characterization in binding and functional assays. […] Corresponding Protein Sequence: Identical to GenBank NP_000515.2. Receptor expression level (BMAX): Estimated to be 3.7 ± 2.3 pmol/mg protein, using [3H] […] This cell line tested negative for mycoplasma.

[3] = parameters: method as in PMID 27353547; details: ref [8]; cited from earlier work
[4] = Plasma glucose, triglyceride and cholesterol levels after repeated administration; type: in vivo, Swiss albino mice; details: mice, AZ-853 0.625, AZ-861 1.25 mg/kg b.w./day
Procedure: as §1
Blood samples were collected from the Swiss albino mice 24 h after the last administration of the tested compounds or vehicle. To determine glucose, cholesterol and triglyceride levels in the plasma, standard enzymatic spectrophotometric tests (Biomaxima S.A. Lublin, Poland) were used. In the presence of appropriate enzyme, the substrate was converted to a colored compound. Absorbance was measured at a wavelength of 500 nm. To determine alanine aminotransferase (ALAT) or γ-glutamyl transpeptidase (γ-GTP) activities in the plasma, the standard enzymatic spectrophotometric test (Biomaxima S.A.) was used. Absorbance was measured at 340 nm (ALAT) or 405 nm (γ-GTP).

human serotonin 5-HT1AR = target: T2, human serotonin 5-HT1AR (Homo sapiens, UniProt P08908); assay: cAMP inhibition (LANCE Ultra cAMP, forskolin-stimulated CHO-K1 cells)
T2 sequence (P08908 1-422): T1 sequence (P08908 1-422)
Procedure: CHO-K1 cell line transfected with 5-HT1A receptor, were commercially obtained from Perkin Elmer (Cat. No. ES-310-C, Lot Number M2W-C1). Cells were cultured according to manufacturer’s instruction.
The cells were cultured under selective conditions (400 μg/mL Geneticin G418). Thawed cells were resuspended in stimulation buffer (HBSS, 5 mM HEPES, 0.5 IBMX, and 0.1% BSA at pH 7.4) at 2 × 10^5 cells/mL. The same volume (10 μL) of cell suspension was added to tested compounds with 10 μM forskolin. Cell stimulation was performed for 40 min at room temperature. After incubation, cAMP measurements were performed with homogeneous TR-FRET immunoassay using the LANCE Ultra cAMP kit (PerkinElmer, USA) according to the manufacturer’s instruction (PerkinElmer). The TR-FRET signal was read on an EnVision microplate reader (PerkinElmer, USA).

PDE10A = system: PDE10A; parameters: method as in PMID 27353547; details: in vitro, bioluminescent detection system; ref [8]; cited from earlier work
[5] = target: T3, muscarinic M3 receptor (M3R) (Cavia porcellus, UniProt H0W1Z3); assay: Smooth muscle relaxant assay: carbachol-induced contraction of isolated guinea pig ileum; details: isolated guinea pig small intestine, carbachol 100 μM
T3 construct: from tissue; host or cells: isolated guinea pig ileum
Procedure: The experiment was carried out according to the method described previously. Male guinea pigs were sacrificed by cervical dislocation. The ileum was rapidly removed, rinsed, and cut into segments of 1.5–2.0 cm length. The tissues were mounted on a jacketed 20 mL organ bath (Tissue Organ Bath System; 750 TOBS, DMT, Denmark) filled with Krebs’s solution (NaCl 120 mM, KCl 5.6 mM, MgCl2 2.2 mM, CaCl2 2.4 mM, NaHCO3 19 mM, glucose 10 mM). The bath was aerated with 95 % O2/5 % CO2 and heated at 37°C. During the 60-min incubation period, the organ was rinsed 4 times with fresh Krebs’s buffer, and the tissues were also pre-stimulated by 60 mM KCl solution. The submaximal contraction induced by histamine (Sigma Aldrich) (2 μM) and carbachol (Sigma Aldrich) (100 μM) was evaluated in the presence and absence of the tested compounds. Amplitudes of contraction values were measured in 4 independent experiments.

human 5-HT1AR = target: T4, human 5-HT1AR (Homo sapiens, UniProt P08908); assay: β-Arrestin recruitment (Tango LiveBLAzer, HTR1A-bla U2OS cells)
T4 sequence (P08908 1-422): T1 sequence (P08908 1-422)
Procedure: Cells were cultured according to manufacturer’s instruction. […] This parental cell line stably expresses a beta-arrestin/TEV protease fusion protein and the beta-lactamase reporter gene under the control of a UAS response element. The Tango™ HTR1A-bla U2OS cells have been functionally validated for a response to 5-CT. This cell line tested negative for mycoplasma.
The HTR1A-bla U2OS receptor cells containing the human 5-HT1AR linked to a TEV protease site and a Gal4-VP16 transcription factor were tested for recruitment of β-arrestin. […] The recruitment of β-arrestin were tested using the Tango LiveBLAzer assay kit according to the manufacturer’s instruction (Life Technologies). The assay plate was measured in FLUOstar Optima, a multifunction plate reader (BMG Lab Tech).

[6] = 18-h monitoring, AZ-853 0.625, AZ-861 1.25 mg/kg b.w./day
[7] = CHO-K1, read-out: Emax (%) ± SEM, agonist mode

T3 sequence (H0W1Z3 1-590): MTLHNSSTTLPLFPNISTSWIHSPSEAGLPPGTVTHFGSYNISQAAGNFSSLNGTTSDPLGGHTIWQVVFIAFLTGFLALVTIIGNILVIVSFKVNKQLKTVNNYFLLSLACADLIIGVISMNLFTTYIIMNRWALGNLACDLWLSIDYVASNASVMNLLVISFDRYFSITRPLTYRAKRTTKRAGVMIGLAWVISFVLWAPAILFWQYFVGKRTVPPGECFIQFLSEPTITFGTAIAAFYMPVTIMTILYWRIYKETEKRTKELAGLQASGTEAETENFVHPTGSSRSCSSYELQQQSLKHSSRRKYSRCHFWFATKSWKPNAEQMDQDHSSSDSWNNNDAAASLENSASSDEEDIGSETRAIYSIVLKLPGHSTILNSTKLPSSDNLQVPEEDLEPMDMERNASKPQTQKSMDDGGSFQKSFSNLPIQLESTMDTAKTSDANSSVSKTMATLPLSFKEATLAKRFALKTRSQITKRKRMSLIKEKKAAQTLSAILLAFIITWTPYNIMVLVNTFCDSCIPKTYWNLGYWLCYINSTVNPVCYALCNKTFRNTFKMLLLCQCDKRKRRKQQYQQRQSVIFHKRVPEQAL

Mean counts, spontaneous activity (mice; after 1st administration, 1 h after administration): 422.3 counts | Mean counts, spontaneous activity (mice; after 1st administration, 2 h after administration): 229.6 counts | Mean counts, spontaneous activity (mice; after 1st administration, 3 h after administration): 213.6 counts | Mean counts, spontaneous activity (mice; after 1st administration, 4 h after administration): 200.4 counts | Mean counts, spontaneous activity (mice; after 1st administration, 5 h after administration): 179.9 counts | Mean counts, spontaneous activity (mice; after 1st administration, 6 h after administration): 236.7 counts | Mean counts, spontaneous activity (mice; after 1st administration, 7 h after administration): 254.4 counts | Mean counts, spontaneous activity (mice; after 1st administration, 8 h after administration): 265.9 counts | Mean counts, spontaneous activity (mice; after 1st administration, 9 h after administration): 189.1 counts | Mean counts, spontaneous activity (mice; after 1st administration, 10 h after administration): 250.4 counts | Mean counts, spontaneous activity (mice; after 1st administration, 11 h after administration): 226.9 counts | Mean counts, spontaneous activity (mice; after 1st administration, 12 h after administration): 397.9 counts | Mean counts, spontaneous activity (mice; after 1st administration, 13 h after administration): 346.3 counts | Mean counts, spontaneous activity (mice; after 1st administration, 14 h after administration): 365.0 counts | Mean counts, spontaneous activity (mice; after 1st administration, 15 h after administration): 380.1 counts | Mean counts, spontaneous activity (mice; after 1st administration, 16 h after administration): 407.7 counts | Mean counts, spontaneous activity (mice; after 1st administration, 17 h after administration): 351.3 counts | Mean counts, spontaneous activity (mice; after 1st administration, 18 h after administration): 351.3 counts | Mean counts, spontaneous activity (mice; after 15th administration, 1 h after administration): 324.3 counts | Mean counts, spontaneous activity (mice; after 15th administration, 2 h after administration): 152.7 counts | Mean counts, spontaneous activity (mice; after 15th administration, 3 h after administration): 148.6 counts | Mean counts, spontaneous activity (mice; after 15th administration, 4 h after administration): 120.0 counts | Mean counts, spontaneous activity (mice; after 15th administration, 5 h after administration): 166.6 counts | Mean counts, spontaneous activity (mice; after 15th administration, 6 h after administration): 110.9 counts | Mean counts, spontaneous activity (mice; after 15th administration, 7 h after administration): 134.7 counts | Mean counts, spontaneous activity (mice; after 15th administration, 8 h after administration): 144.6 counts | Mean counts, spontaneous activity (mice; after 15th administration, 9 h after administration): 138.1 counts | Mean counts, spontaneous activity (mice; after 15th administration, 10 h after administration): 272.4 counts | Mean counts, spontaneous activity (mice; after 15th administration, 11 h after administration): 256.9 counts | Mean counts, spontaneous activity (mice; after 15th administration, 12 h after administration): 347.2 counts | Mean counts, spontaneous activity (mice; after 15th administration, 13 h after administration): 396.8 counts | Mean counts, spontaneous activity (mice; after 15th administration, 14 h after administration): 307.7 counts | Mean counts, spontaneous activity (mice; after 15th administration, 15 h after administration): 281.8 counts | Mean counts, spontaneous activity (mice; after 15th administration, 16 h after administration): 249.2 counts | Mean counts, spontaneous activity (mice; after 15th administration, 17 h after administration): 304.0 counts | Mean counts, spontaneous activity (mice; after 15th administration, 18 h after administration): 356.3 counts | EC50 [2]: 0.00661 µM | Emax [2, 7]: 60 ± 2% | decreased efficacy as compared to 5-HT ([2]; p-ERK1/2): 1.6 fold | increased potency as compared to 5-HT ([2]; p-ERK1/2): 1.5 fold | plasma level of total cholesterol vs. control [4]: increased significantly | plasma level of triglycerides vs. control [4]: increased significantly | EC50 (human serotonin 5-HT1AR): 0.0158 µM | Emax (human serotonin 5-HT1AR; [7]): 43 ± 0.5% | lower efficacy than 5-HT (human serotonin 5-HT1AR; cAMP inhibition): 2.3 fold | lower potency than 5-HT (human serotonin 5-HT1AR; cAMP inhibition): 1.4 fold | inhibition at 1 µM [5]: 2.5% | EC50 (human 5-HT1AR): 0.00417 µM | Emax (human 5-HT1AR; U2OS, read-out: Emax (%) ± SEM, agonist mode): 93 ± 1.7% | increased potency as compared to 5-HT (human 5-HT1AR; β-arrestin recruitment): 95 fold
SMILES: Cn1c(=O)c2c(nc3n(CCCCN4CCN(c5ccccc5F)CC4)ccn23)n(C)c1=O [AZ-853, 8-(4-(4-(2-fluorophenyl)piperazin-1-yl)butyl)-1,3-dimethyl-1H-imidazo[2,1-f]purine-2,4(3H,8H)-dione]
Ki [1]: 0.508 µM | spontaneous activity after the 1st administration vs. control (mice; [6]): increased spontaneous activity in the 1st, 7th, 12th and 13th hour | spontaneous activity after the 15th administration vs. control (mice; [6]): significant increase in activity was observed only in the 1st hour; also recorded: in the 4th, 7th and 9th hour after administration, a significant reduction in spontaneous activity | estimated log p [3]: 5.34 | plasma glucose level vs. control [4]: did not influence the plasma glucose level | PDE10A inhibitory activity (PDE10A): did not induce PDE4B and PDE10A inhibitory activity
